Source: patent US20190367449A1, “PHENYLCREATINE, ITS USE AND METHOD FOR ITS PRODUCTION” (priority 2017, published 2019)

Legend:
white mongrel mice = assay: Endurance of mice in the treadmill test (running to complete exhaustion); assay type: in vivo; conditions: for Running time of mice (M ± m): treadmill 29-31 m/min, 1 hour after administration
Experimental: In order to find out whether phenylcreatine is a functional analogue of creatine, and also how much its effect is related to the strength of creatine, the functional state of the mice was assessed, namely, the body weight was measured, activity and endurance in the test on white mongrel mice were assessed-males weighing 18-22 g. Two experimental groups of mice and one control group (10 mice in each group) were selected. Initially, the animals were of equal mass. The animals were kept in accordance with the rules adopted by the European Convention for the Protection of Vertebrates used for experimental and other purposes (European Convention for the Protection of Vertebrates used for Experiments or for Other Scientific Purposes (EST No. 123), Strasbourg, 18 March 1986, M., 1990, 12 pp.). Animals were kept in standard vivarium conditions. The animals were killed by decapitation in accordance with the “Rules for carrying out work using experimental animals”, approved by order of the Ministry of Health of the USSR No. 742 of 13 Nov. 1984 (Bolshakov […] Didactic and ethical aspects of research on biomodels and on laboratory animals//Qualitative clinical practice. 2002. No. 1. P.58-61). Within 20 days, the animals received an aqueous solution of creatine in a dosage of 0.3 mg per gram of weight. […] Upon administration, the drug was dissolved in 0.3 ml of water and injected into mice through a probe into the stomach daily in the morning, on an empty stomach. The animals of the control group received a similar volume of water. Phenylcreatine was also administered for 20 days in an amount of 50 mg per kg of body weight. Endurance of mice under physical exertion was assessed according to a standard procedure (Emirova L R Potention by […] of the action of medicinal substances that increase the endurance of athletes: dis . . . medical doctor: 14.00.25. M., 2004. 125 pp.) for the duration of running in the treadmill test. The animals of each group were subjected to daily training loads in a high load power mode, which was modelled by running on a treadmill at a speed of 29-31 m/min. The duration of daily mice training was 5 minutes. Endurance of mice was tested on the 1st, 5th, 10th, 15th, 20th and 25th days of training against the background of administration of drugs (or distilled water in the control). Endurance testing was conducted under the same conditions as training. Endurance was tested 1 hour after drug administration (Petrenko E R Comparative pharmacological study of adaptogenic properties of ginseng preparations: dis . . . candidate of biological sciences: 14.00.25., St. Petersburg, 1998. 126 pp.) until fatigue, the criterion of which was the lack of reaction of mice to stimulation of the legs and tail by electric current (Stratienko E N Influence of phenylethyl substituted derivatives of 3-oxypridine on the physical working capacity of mice under conditions of hypobaric hypoxia: dis . . . . Medical Candidate of Sciences Bryansk, 1996. DSP. 201 pp.). Running time was recorded in seconds. The study was carried out at rest, an hour after the administration of creatine or phenylcreatine, and immediately after the end of the run in the treadmill. Statistical processing of data was carried out in the program Statistica, for all data groups, using the Student's criterion. The following results were obtained concerning the effect of the intake of creatine and phenylcreatine on the endurance of mice. Dosages of 10 mg of phenylcreatine per animal and 300 mg of creatine per animal were used.

[1] = Body weight of mice on administration of creatine and phenylcreatine; assay type: in vivo; conditions: 20 days daily into the stomach, creatine 0.3 mg per gram, phenylcreatine 50 mg per kg, control 6.4%
Experimental: In order to find out whether phenylcreatine is a functional analogue of creatine, and also how much its effect is related to the strength of creatine, the functional state of the mice was assessed, namely, the body weight was measured, activity and endurance in the test on white mongrel mice were assessed—males weighing 18-22 g.
Two experimental groups of mice and one control group (10 mice in each group) were selected. Initially, the animals were of equal mass. The animals were kept in accordance with the rules adopted by the European Convention for the Protection of Vertebrates used for experimental and other purposes (European Convention for the Protection of Vertebrates used for Experiments or for Other Scientific Purposes (EST No. 123), Strasbourg, 18 March 1986, M., 1990, 12 pp.). Animals were kept in standard vivarium conditions. The animals were killed by decapitation in accordance with the “Rules for carrying out work using experimental animals”, approved by order of the Ministry of Health of the USSR No. 742 of 13 Nov. 1984 (Bolshakov O P, Neznanov N G, Babakhnyan R V Didactic and ethical aspects of research on biomodels and on laboratory animals//Qualitative clinical practice. 2002. No. 1. P.58-61).
Within 20 days, the animals received an aqueous solution of creatine in a dosage of 0.3 mg per gram of weight. […]

[2] = 15th day of the study, control 1.1 times
[3] = 20th day of the study, control 1.4 times
[4] = 25th day of research, control 1.7 times
[5] = 1 d, 10 mg phenylcreatine or 300 mg creatine per animal

Row | Structure (SMILES) | Increase of running time to total fatigue (white mongrel mice; [2]) [times] | Increase of running time to total fatigue (white mongrel mice; [3]) [times] | Increase of running time to total fatigue (white mongrel mice; [4]) [times] | Running time of mice (M ± m) (white mongrel mice; [5]) [s] | Running time of mice (M ± m) (white mongrel mice; 5 d) [s] | Running time of mice (M ± m) (white mongrel mice; 10 d) [s] | Running time of mice (M ± m) (white mongrel mice; 15 d) [s] | Running time of mice (M ± m) (white mongrel mice; 20 d) [s] | Running time of mice (M ± m) (white mongrel mice; 25 d) [s] | Weight gain [1] [%] | Speed of increase of the effect relative to the group receiving creatine (white mongrel mice; mice treadmill) [times]
1 | CN(CC(=O)O)C(=N)N [creatine, 2-(methylguanine)-ethane acid] | 2.8 | 4.5 | 5.6 | 626.00 ± 32.25 | 772.60 ± 33.07 | 775.80 ± 37.01 | 1811.30 ± 85.82 | 2794.70 ± 103.22 | 3697.5 ± 1373 | 9 | –
2 | N=C(N)N(CC(=O)O)Cc1ccccc1 [phenylcreatine, N-benzyl-N-carbamimidoylglycine] | 6.4 | 6.9 | 6.7 | 588.23 ± 25 | 747.23 ± 17.06 | 1874.12 ± 114.43 | 3756.77 ± 97.02 | 4076.45 ± 276.57 | 3981.4 ± 202.8 | 15.4 | 2
